# Test system: VJ-300 cells
# Test: In vitro test of action suppressing proliferation of cancer cells, combined administration of doxorubicin (colony formation), resistant cells
# Assay type: cell-based, Human
# Conditions: ADM alone or ADM + test compound 1 µg/ml, LD50 of ADM relative to ADM alone in KB cells = 1, 7 days incubation, colony count
# Method: Human rhinopharynx cancer derived KB cells (i.e., sensitive cells) and their multi-drug resistant clone VJ-300 cells (i.e., resistant cells) were used as the test cells. As the incubation solutions, use was made of 10% fetal calf serum (Flow Laboratories) and Eagle MEM medium (Nissui Seiyaku) containing 0.292 mg/ml of L-glutamine (Flow Laboratories). The tests of the action for overcoming resistance to anti-cancer drugs or action for increasing the effect of the anti-cancer drug with the combined administration of the anti-cancer drug doxorubicin (i.e., adriamycin, ADM) and the test compound were performed as follows:
# The test cells were suspended in incubation solutions and adjusted to a cell density of about 200 cells/ml. The cell suspensions were injected in 2 ml amounts into petri dishes and were incubated in a CO2 gas incubator (5% CO2, 95% air) at 37°C for 24 hours. Then, 5 µl of a predetermined concentration of the aqueous ADM solution and a predetermined concentration of a DMSO solution of the test compound were added, then the incubation was continued for a further 7 days. After the end of the incubation, the result was immobilized with methanol, Giemsa stained and measured for the number of colonies per dish. The results were used to prepare a volume-reaction curve. […] The results are shown in Table 8 to Table 10 using the concentration of LD50 of ADM in the ADM alone group by KB cells as the resistance degree 1 and calculating the resistances of the following LD50 concentrations as relative ratios. […]
row,Structure (SMILES),Degree of resistance for ADM VJ-300
1,"COc1cccc2c1C(=O)c1c(O)c3c(c(O)c1C2=O)C[C@@](O)(C(=O)CO)C[C@@H]3O[C@H]1C[C@H](N)[C@H](O)[C@H](C)O1 [ADM, doxorubicin, reference compound]",26 - 51
2,"CCCCCC1C(C(=O)OCC=Cc2cccnc2)=C(C)NC(c2ccc(-n3c(C)nc4ncccc43)cc2)=C1C(=O)OCC (centres unmarked) [Compound 4, 6-methyl-2-[4-(2-methylimidazo[4,5-b]pyridin-1-yl)phenyl]-4-pentyl-1,4-dihydropyridin-3,5-dicarboxylate 3-ethylester, 5-[3-(3-pyridyl)-2-propenyl]ester]",1.2
3,"CCCCCC1C(C(=O)OCCCN2CCN(C(c3ccccc3)c3ccccc3)CC2)=C(C)NC(c2ccc(-n3c(C)nc4ncccc43)cc2)=C1C(=O)OCC (centres unmarked) [Compound 5, 6-methyl-2-[4-(2-methylimidazo[4,5-b]pyridin-1-yl)phenyl]-4-pentyl-1,4-dihydropyridin-3,5-dicarboxylate 3-ethylester, 5-[3-(4-benzhydrylpiperadin-1-yl)propyl]ester]",4.6
4,"CCCCC1C(C(=O)OCCCc2cccnc2)=C(C)NC(c2ccc(-n3c(C)nc4cnccc43)cc2)=C1C(=O)OCC (centres unmarked) [Compound 6, 4-butyl-6-methyl-2-[4-(2-methylimidazo[4,5-c]pyridin-1-yl)phenyl]-1,4-dihydropyridin-3,5-dicarboxylate 3-ethylester, 5-[3-(3-pyridyl)propyl]ester]",2.8
5,"CCCCCC1C(C(=O)OCCCc2cccnc2)=C(C)NC(c2ccc(-n3c(C)nc4cnccc43)cc2)=C1C(=O)OCC (centres unmarked) [Compound 7, 6-methyl-2-[4-(2-methylimidazo[4,5-c]pyridin-1-yl)phenyl]-4-pentyl-1,4-dihydropyridin-3,5-dicarboxylate 3-ethylester, -5-[3-(3-pyridyl)propyl]ester]",2.8
6,"CCOC(=O)C1=C(c2ccc(-n3c(C)nc4cnccc43)cc2)NC(C)=C(C(=O)OCCCc2cccnc2)C1CC(C)(C)C (centres unmarked) [Compound 8, 4-(2,2-dimethylpropyl)-6-methyl-2-[4-(2-methylimidazo[4,5-c]pyridin-1-yl)phenyl]-1,4-dihydropyridin-3,5-dicarboxylate 3-ethylester, 5-[3-(3-pyridyl)propyl]ester]",1.3
7,"CCOC(=O)C1=C(c2ccc(-n3c(C)nc4cnccc43)cc2)NC(C)=C(C(=O)OCCCc2cccnc2)C1C1CCCCC1 (centres unmarked) [Compound 9, 4-cyclohexyl-6-methyl-2-[4-(2-methylimidazo[4,5-c]pyridin-1-yl)phenyl]-1,4-dihydropyridin-3,5-dicarboxylate 3-ethylester, 5-[3-(3-pyridyl)propyl]ester]",2.9
8,"CCOC(=O)C1=C(c2ccc(-n3c(C)nc4cnccc43)cc2)NC(C)=C(C(=O)OCCCc2cccnc2)C1CC(C)C (centres unmarked) [Compound 10, 6-methyl-2-[4-(2-methylimidazo[4,5-c]pyridin-1-yl)phenyl]-4-(2-methylpropyl)-1,4-dihdropyridin-3,5-dicarboxylate 3-ethylester, 5-[3-(3-pyridyl)propyl]ester]",1.4
9,"CCOC(=O)C1=C(c2ccc(-n3c(C)nc4cnccc43)cc2)NC(C)=C(C(=O)OCCCc2cccnc2)C1C=C(C)C (centres unmarked) [Compound 11, 6-methyl-2-[4-(2-methylimidazo[4,5-c]pyridin-1-yl)phenyl]-4-(2-methyl-1-propenyl)-1,4-dihydropyridin-3,5-dicarboxylate 3-ethylester, 5-[3-(3-pyridyl)propyl]ester]",3.2
10,"CCOC(=O)C1=C(c2ccc(-n3c(C)nc4cnccc43)cc2)NC(C)=C(C(=O)OCCCc2cccnc2)C1Cc1ccccc1 (centres unmarked) [Compound 12, 4-benzyl-6-methyl-2-[4-(2-methylimidazo[4,5-c]pyridin-1-yl)phenyl]-1,4-dihydropyridin-3,5-dicarboxylate 3-ethylester, 5-[3-(3-pyridyl)propyl]ester]",6.5
11,"CCOC(=O)C1=C(c2ccc(-n3c(C)nc4cnccc43)cc2)NC(C)=C(C(=O)OCCCc2cccnc2)C1CCc1ccccc1 (centres unmarked) [Compound 13, 6-methyl-2-[4-(2-methylimidazo[4,5-c]pyridin-1-yl)phenyl]-4-(2-phenylethyl)-1,4-dihydropyridin-3,5-dicarboxylate 3-ethylester, 5-[3-(3-pyridyl)propyl]ester]",2.6
12,"CCOC(=O)C1=C(c2ccc(-n3c(C)nc4cnccc43)cc2)NC(C)=C(C(=O)OCCCc2cccnc2)C1/C=C/c1ccccc1 (centres unmarked) [Compound 14, 6-methyl-2-[4-(2-methylimidazo[4,5-c]pyridin-1-yl)phenyl]-4-[(E)-2-phenylethenyl]-1,4-dihydropyridin-3,5-dicarboxylate 3-ethylester, 5-[3-(3-pyridyl)propyl]ester]",1.3
13,"CCCCCC1C(C(=O)OCCCCCc2cccnc2)=C(C)NC(c2ccc(-n3c(C)nc4cnccc43)cc2)=C1C(=O)OCC (centres unmarked) [Compound 17, 6-methyl-2-[4-(2-methylimidazo[4,5-c]pyridin-1-yl)phenyl]-4-pentyl-1,4-dihydropyridin-3,5-dicarboxylate 3-ethylester, 5-[5-(3-pyridyl)pentyl]ester]",1.6
14,"CCOC(=O)C1=C(c2ccc(-n3c(C)nc4cnccc43)cc2)NC(C)=C(C(=O)OCCCCCc2cccnc2)C1CCc1ccccc1 (centres unmarked) [Compound 18, 6-methyl-2-[4-(2-methylimidazo[4,5-c]pyridin-1-yl)phenyl]-4-(2-phenylethyl)-1,4-dihydropyridin-3,5-dicarboxylate 3-ethylester, 5-[5-(3-pyridyl)pentyl]ester]",1.4
15,"CCCCCC1C(C(=O)OC/C=C(/c2cccnc2)c2cccs2)=C(C)NC(c2ccc(-n3c(C)nc4cnccc43)cc2)=C1C(=O)OCC (centres unmarked) [Compound 19, 6-methyl-2-[4-(2-methylimidazo[4,5-c]pyridin-1-yl)phenyl]-4-pentyl-1,4-dihydropyridin-3,5-dicarboxylate 3-ethylester, 5-[(Z)-3-(3-pyridyl)-3-(2-thienyl)-2-propenyl]ester]",1.2
16,"CCOC(=O)C1=C(c2ccc(-n3c(C)nc4cnccc43)cc2)NC(C)=C(C(=O)OC/C=C(/c2cccnc2)c2cccs2)C1CCc1ccccc1 (centres unmarked) [Compound 20, 6-methyl-2-[4-(2-methylimidazo[4,5-c]pyridin-1-yl)phenyl]-4-(2-phenylethyl)-1,4-dihydropyridin-3,5-dicarboxylate 3-ethylester, 5-[(Z]-3-(3-pyridyl)-3-(2-thienyl)-2-propenyl]ester]",1.6
17,"CCOC(=O)C1=C(c2ccc(-n3c(C)nc4cnccc43)cc2)NC(C)=C(C(=O)OCCCCCc2cccnc2)C1/C=C/c1ccccc1 (centres unmarked) [Compound 21, 6-methyl-2-[4-(2-methylimidazo[4,5-c]pyridin-1-yl)phenyl]-4-[(E)-2-phenylethenyl]-1,4-dihydropyridin-3,5-dicarboxylate 3-ethylester, 5-[5-(3-pyridyl)pentyl]ester]",1.1

# Source: patent EP0943615A1, “1,4-DIHYDROPYRIDINE DERIVATIVES” (Nikken Chemicals Company, Limited, priority 1996, dated 1998)
